Laboratory results reported in publication PMC8623047, “Novel Antioxidants and α-Glycosidase and Protein Tyrosine Phosphatase 1B Inhibitors from an Endophytic Fungus Penicillium brefeldianum F4a” (Journal of Fungi, 2021).

Columns and labels:
PTP1B = target: T1, PTP1B (Homo sapiens, UniProt P18031); test: PTP1B inhibitory assay (p-NPP substrate); type: biochemical; conditions: mean ± SD, n = 3; sample concentration achieving 50% of activity
T1 sequence (P18031 1-435): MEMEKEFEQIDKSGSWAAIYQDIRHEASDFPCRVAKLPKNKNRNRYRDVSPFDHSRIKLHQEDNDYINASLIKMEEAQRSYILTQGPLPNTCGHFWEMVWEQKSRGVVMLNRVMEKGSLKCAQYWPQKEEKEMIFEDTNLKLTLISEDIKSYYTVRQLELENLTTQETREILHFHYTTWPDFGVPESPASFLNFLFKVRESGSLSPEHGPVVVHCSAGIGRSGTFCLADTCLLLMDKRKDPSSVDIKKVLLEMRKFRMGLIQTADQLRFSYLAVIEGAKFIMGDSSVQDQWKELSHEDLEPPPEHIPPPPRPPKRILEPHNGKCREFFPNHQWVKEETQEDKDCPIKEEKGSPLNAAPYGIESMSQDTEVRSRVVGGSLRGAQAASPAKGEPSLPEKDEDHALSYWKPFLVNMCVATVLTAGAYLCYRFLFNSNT
Procedure: The PTP1B inhibitory activity was established according to the previously reported methods. The reagent para-nitrophenyl phosphate (p-NPP) was used as a substrate for PTP1B. Then, 81 μL enzyme in buffer (pH 7.5), including EDTA (1 mM), Tris-HCl (25 mM), dithiothreitol (DTT) (1 mM), β-mercaptoethanol (2 mM), and 10 μL of sample at various concentrations in DMSO (the blank control used 10 μL of DMSO instead of the sample), was incubated in 96-well plates at 37 °C for 10 min. Then, 4 μL p-NPP (10 mM) in buffer was added and incubated at 37 °C for 30 min. Next, 5 μL of 2 M NaOH solution was added to terminate the reaction. Then, the absorbance was determined at 405 nm wavelength.

[1] = DPPH radical scavenging assay; conditions: mean ± SD, n = 3; 30 min, 517 nm
Procedure: The DPPH free radicals scavenging assay was tested according to the previously reported methods. First, 100 μL of sample at different concentrations in ethanol (the blank control used 100 μL of ethanol instead of the sample) was added to 96 wells, followed by 100 μL of 0.15 mM DPPH. […] L-Ascorbic acid was used as the positive control.

[2] = ABTS radical scavenging assay; conditions: mean ± SD, n = 3; 6 min, 734 nm
Procedure: The ABTS free radical scavenging assay was tested according to the previously reported methods. […] The mixture was incubated in darkness at room temperature for 12 h before use. […] Then, 100 μL of the sample at various concentrations in ethanol (the blank control used 100 μL of ethanol instead of the sample) was added to 3.0 mL of diluted ABTS^•+ solution and mixed vigorously. […] L-Ascorbic acid was used as the positive control.

[3] = previous studies; cited from earlier work

Row | EC50 (PTP1B) [µM] | EC50 [1] [µM] | EC50 [2] [µM] | Compound | DPPH• scavenging activity IC50 [3] [µg/mL]
1 | > 50 | > 100 | 30 ± 4.17 | COc1cc(O)cc(C)c1CC(=O)O [Compound 9, 2-(4-hydroxy-2-methoxy-6-methylphenyl) acetic acid] | 
2 |  | 6.12 ± 0.17 | 18.8 ± 3.39 | O=C1O[C@H]([C@@H](O)CO)C(O)=C1O [L-Ascorbic acid, reference compound] | 
3 | > 50 | 30.1 ± 2.83 | 15 ± 2.57 | CC1=Cc2oc3cc(O)c(O)cc3c(=O)c2CO1 [Compound 6, myxotrichin C] | 

Continued, molecule first:

Row | Compound | EC50 (PTP1B) [µM] | EC50 [1] [µM] | EC50 [2] [µM] | DPPH• scavenging activity IC50 [3] [µg/mL]
4 | C[C@]1(O)Cc2oc3c(C(=O)O)c(O)c(O)cc3c(=O)c2CO1 [Compound 4, penialidin A] | > 50 | > 100 | 14.5 ± 0.46 | 156.38
5 | C=C1C=CC(=O)[C@]1(CO)Cc1c(C)cc(O)cc1OC [Compound 3, peniorcinol C] | > 50 | > 100 | 32.7 ± 3.86 | 
6 | O=C(O)Cc1c[nH]c2ccccc12 [Compound 8, indole-3-acetic acid] | 11.7 ± 1.03 |  |  | 
7 | Cc1cc2nc3c(=O)[nH]c(=O)nc-3n(C[C@H](O)[C@H](O)[C@H](O)CO)c2cc1C [Compound 7, riboflavin] | 8.87 ± 0.91 |  |  | 
8 | COc1cc(O)cc(C)c1Cc1oc(C[C@@H](C)O)cc1C(=O)O [Compound 1, peniorcinol A] | > 50 | > 100 | 21.9 ± 1.06 | 
9 | COc1cc(O)cc(C)c1Cc1oc(C)cc1C(=O)O [Compound 2, peniorcinol B] | > 50 | > 100 | 28.2 ± 2.87 | 
10 | C[C@]1(O)Cc2oc3cc(O)c(O)cc3c(=O)c2CO1 [Compound 5, penialidin F] | > 50 | 28.4 ± 3.16 | 7.61 ± 0.46 | 
